Legend:
[1] = tested on: oxido-squalene cyclase; assay: In vitro test to measure inhibition of microsomal oxido-squalene cyclase; assay type: biochemical; details: 1 μM; rat liver microsomes
Experimental: (a) In vitro Test to Measure Inhibition of Oxido-squalene Cyclase
This test measures the inhibition of microsomal oxido-squalene cyclase in vitro by compounds at set concentrations in the incubation medium.
Microsomes are prepared from rat liver according to methods known in the art, for example, the method described in published European Patent Application No 324,421 and stored in liquid nitrogen prior to assay. Assay vials are kept at 37° C. throughout the incubation. The microsomes typically contain 15-20 mg of protein per ml of microsomes. For assay, 1 ml of microsomes are diluted by the addition of 722 μl of 50 mM phosphate buffer pH 7.4.
Phosphate buffered Tween 80 (polyoxyethylene sorbitan […]) is prepared by adding 0.1 g Tween 80 to 100 ml of 50 mM phosphate buffer.
A stock solution of oxido-squalene is made up as a solution in ethanol (0.65 mg.ml^-1). 18 μl of radio-labelled oxido-squalene (1 μCi.ml^-1) is evaporated to dryness under a stream of nitrogen and redissolved in 1 ml of ethanol and 1 ml of the stock solution of oxido-squalene is added.
The test compound is dissolved in dimethyl sulphoxide to give a 10^-4 M stock solution. […]
The samples are then placed in a water bath at 80° C. for 2 hours to saponify. […] Reaction rate is measured as the conversion of oxido-squalene to lanosterol, and the effects of test compounds are expressed as an inhibition of this process.

[2] = tested on: oxido-squalene cyclase; assay: In vivo test to measure inhibition of oxido-squalene cyclase / cholesterol biosynthesis in the rat; details: 2 mg/kg, oral, female rats
Experimental: (b) In vivo Test to Measure Inhibition of Oxido-Squalene Cyclase
The ability of a compound to inhibit oxido-squalene cyclase and/or inhibit cholesterol biosynthesis may be assessed by a routine laboratory procedure carried out in the rat. The test involves administration of the compound to rats on a reversed lighting regimen. Female rats (35-55 g) are housed in reverse lighting conditions (red light from 0200 h-1400 h) for a period of about 2 weeks prior to test. Animals are allowed free access to chow and drinking water throughout this period. At test, animals should weigh 100-140 g. The rats are dosed orally, with the compound (typically 10-50 mg/kg) formulated in a polyethylene glycol/hydroxypropylmethyl cellulose mix. After 1 hour the rats are given […] sodium mevalonate (15 μCi/kg) intraperitoneally. Two hours after administration of the compound the rats are terminated and a piece of liver removed and weighed. The tissue is saponified at 80° C. for 2 hours in an ethaniolic/potassium hydroxide solution (80% w/v aqueous KOH diluted 1:10 with ethanol). Water (2 ml) is added and the mixture extracted with iso-hexane (2×5 ml). The organic extracts are combined, evaporated to dryness under a stream of nitrogen and the residue is dissolved in a mixture of acetonitrile/iso-propanol (300 μl). […] The radio-label content of each fraction is assessed using a radio chemical flow detector. […]

Row | SMILES | inhibition of oxido-squalene cyclase (conversion of oxido-squalene to lanosterol) [1] | inhibition of cholesterol biosynthesis [2]
1 | O=S(=O)(c1ccc(Br)cc1)N1CCN(c2ccncc2)CC1 [Example 25, 1-(4-pyridyl)-4-(4-bromophenylsulphonyl)piperazine] | 100% | 
2 | N#Cc1ccc(S(=O)(=O)Nc2ccc(N3CCN(c4ccncc4)CC3)cc2)cc1 [Example 27, 1-(4-pyridyl)-4-(4-cyanophenylsulphonamidophenyl)piperazine] |  | 70%
3 | Fc1cc(Br)ccc1CN1CCN(c2ccncc2)CC1 [Example 18, 1-(4-pyridyl)-4-(2-fluoro-4-bromobenzyl)piperazine] |  | 59%
